These results are taken from PubChem BioAssay (NCI).

Molecules are shown by their SMILES.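 Interpolation was linear, between the two tested concentrations surrounding the appropriate level; five concentrations were tested over 48 hours in 96-well plates. Abbreviation: GI50, concentration required for 50% inhibition of growth. TGI marks complete inhibition of growth.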

Common to all, as to experiment: DTP human tumour cell line panel, 48 h
The subject of experiment [1] is ACHN renal.
Experiment [2] relates to BT-549 breast.
Experiment [3] has as its system CAKI-1 renal.
The test system of experiment [4] is DU-145 prostate.
Experiment [5] relates to HL-60(TB) leukemia.
The test system of experiment [6] is K-562 leukemia.
In experiment [7] the test system is NCI-H23 lung.
Experiment [8] relates to OVCAR-3 ovarian.
In experiment [9] the test system is OVCAR-5 ovarian.
For experiment [10], the system named is OVCAR-8 ovarian.
For experiment [11], the system named is RXF 393 renal.
For experiment [12], the system named is SF-268 CNS.
In experiment [13] the test system is SF-295 CNS.
Experiment [14] deals with SK-MEL-28 melanoma.
Experiment [15] concerns SK-MEL-5 melanoma.
Experiment [16] relates to SK-OV-3 ovarian.
The test system of experiment [17] is SNB-19 CNS.
Experiment [18] concerns SNB-75 CNS.
In experiment [19] the test system is TK-10 renal.

The GI50 is the concentration giving 50% growth inhibition. As usually defined, the TGI is the concentration at which net growth stops. As for `Cc1ccc(C2N=C(N)NC3=C2CCOc2c3ccc3ccccc23)cc1` (centres undefined), the GI50 in experiment [1] is 16.6 µM. In addition, the TGI in experiment [1] is over 73.7 µM; in experiment [2], over 79.8 µM; in experiment [3], 28.5 µM; in experiment [4] it was over 85.4 µM; in [5] it was 19 µM; in experiment [6], over 44.1 µM. For the same molecule, the TGI in experiment [7] is over 79.5 µM; in [8], 21 µM; in experiment [9], over 77.1 µM; in [10], over 70.5 µM; in [11], 97.9 µM; in experiment [12], over 75.6 µM. For the same molecule, the TGI was 62.2 µM in experiment [13]; over 100 µM in experiment [14]; 30.9 µM in experiment [15]; over 100 µM in experiment [16]; over 100 µM in experiment [17]; over 78.6 µM in experiment [18]. The same molecule gave a TGI in [19] of over 80.3 µM.

As to `CC(C)COC(=O)OC(=O)c1ccc(N(C)Cc2cnc3nc(N)nc(N)c3n2)cc1`, the TGI in experiment [1] was over 79.4 µM; in experiment [2] it was 97.8 µM; in experiment [3] it was over 100 µM; in [4], over 100 µM; in [5], over 100 µM; in experiment [6], over 100 µM. In addition, the TGI in experiment [7], in experiment [8], in experiment [9], in experiment [10], in experiment [11] and in experiment [12] was over 100 µM in each case. Further, the TGI in experiment [13] is over 100 µM; in experiment [14] it was over 100 µM; in experiment [15] it was over 93.9 µM; in experiment [16] it was over 100 µM; in experiment [17], over 100 µM; in [18] it was over 100 µM. In experiment [19], this molecule registered a TGI of over 100 µM.

With `Cc1ccc(S(=O)(=O)N2c3ccccc3[C@H]3CCC=C[C@H]32)cc1`, the TGI in experiment [1] is over 93.3 µM; in experiment [2], over 100 µM; in experiment [3], over 100 µM; in experiment [4] it was over 100 µM; in experiment [5], 28.8 µM; in experiment [6], over 81.3 µM. In addition, the TGI is 52.3 µM in experiment [7]; 28.4 µM in [8]; over 100 µM in experiment [9]; over 88.5 µM in experiment [10]; 19 µM in experiment [11]; over 76.1 µM in experiment [12]. Besides, the TGI is 32.4 µM in experiment [13]; over 96.1 µM in experiment [14]; over 97.5 µM in experiment [15]; 28.6 µM in experiment [16]; over 100 µM in experiment [17]; 42.5 µM in [18]. In experiment [19], this molecule had a TGI of over 100 µM.

Consider `COc1cc(OC)c2c(=O)c(OC)c(-c3ccc4c(c3)OCO4)oc2c1OC`, for which the TGI in experiment [1] was over 100 µM; in experiment [2], over 100 µM; in [3], over 100 µM; in [4] it was over 100 µM; in experiment [5], 40.4 µM; in experiment [6] it was over 100 µM. Besides, the TGI in experiment [7], in experiment [8], in experiment [9], in [10], in experiment [11] and in experiment [12] was over 100 µM in each case. Further, the TGI in [13] was over 100 µM; in experiment [14] it was over 100 µM; in [15] it was 89.8 µM; in experiment [16], over 100 µM; in experiment [17], over 100 µM; in experiment [18], over 100 µM. In addition, the TGI in experiment [19] was over 100 µM.

For `c1cc2nnc1SCCCSc1ccc(nn1)SCCCSc1ccc(nn1)SCCCS2`, the TGI in experiment [1], in experiment [2], in [3], in experiment [4], in experiment [5] and in [6] was over 100 µM in each case. Besides, the TGI in experiment [7], in [8], in [9], in experiment [10], in experiment [11] and in experiment [12] was over 100 µM in each case. The TGI in experiment [13] was over 100 µM; in experiment [14], over 100 µM; in [15], over 100 µM; in [16] it was over 100 µM; in experiment [17] it was over 100 µM; in experiment [18], 83.4 µM. This molecule registered a TGI in experiment [19] of over 100 µM.

As for `COc1cc(CNC2=NCCC2)cc(OC)c1OC`, the TGI in experiment [1], in experiment [2], in [3], in [4], in [5] and in experiment [6] was over 100 µM throughout. For the same molecule, the TGI in [7], in experiment [8], in experiment [9], in experiment [10], in [11] and in experiment [12] was over 100 µM each time. For the same molecule, the TGI in experiment [13], in experiment [14], in [15], in experiment [16], in experiment [17] and in [18] was over 100 µM in each case. The TGI in experiment [19] was over 100 µM.

Consider `Cc1[nH]n(C(=N)N)c(=O)c1CCO`, for which the TGI in experiment [1], in experiment [2], in experiment [3], in [4], in [5] and in experiment [6] was over 100 µM throughout. Also, the TGI in experiment [7] is over 100 µM; in experiment [8], over 100 µM; in experiment [9], over 100 µM; in [10], 3.17 µM; in experiment [11], over 100 µM; in experiment [12], over 100 µM. In addition, the TGI in experiment [13], in experiment [14], in [15], in experiment [16], in experiment [17] and in experiment [18] was over 100 µM throughout. This molecule gave a TGI in experiment [19] of over 100 µM.
